Test results taken from patent US20110281956A1, “USE OF THYMUS CAPITATUS EXTRACT, SATUREJA HORTENSIS EXTRACT, OR CARVACROL FOR TREATING METABOLIC DISEASES” (INDUSTRY-ACADEMIC COOPERATION FOUNDATION, YONSEI UNIVERSITY, priority 2009, published 2011).
“Also recorded” adds a separate entry of the source. Marks after values point to notes of the source that are not given here.

Experiments:
preadipocytes 3T3-L1 = test: Adipocyte differentiation inhibition, Oil Red O staining; type: cell-based, mouse; details: 14 days
Method: The effect of carvacrol […] on adipocyte differentiation and growth was investigated using mouse adipocytes (3T3-L1). Preadipocytes 3T3L1 were placed on a 12-well plate and cultured to confluency in a 5% CO2 incubator at 37° C. using DMEM containing 1% penicillin-streptomycin, 1% non-essential amino acids and 10% fetal bovine serum (FBS). The cultured 3T3-L1 cells were differentiated into adipocytes by culturing for 2 days in a medium containing 0.5 mM methylisobutylxanthine/1 μM dexamethasone/1 μg/mL insulin (DMI). The cells were differentiated into mature adipocytes by further culturing for 2 days in DMEM containing 1 μg/mL insulin. Subsequently, they were further cultured for 10 days while changing DMEM every other day to obtain fully differentiated adipocytes.
Starting from the day when DMI was added to the 3T3-L1 cells, carvacrol was treated at concentrations of 0.1, 1, 10, 50 and 100 μM every other day. Carvacrol was purchased from Sigma and used after dissolving in DMSO. For negative control, only DMSO was used. After the culturing for a total of 14 days, when the cells were fully differentiated, the medium was removed and the fats contained in the differentiated adipocytes were stained. […]
To measure the triglyceride level of the differentiated 3T3-L1 cells, the stained cells were dissolved in 1 mL of isobutanol and OD value was measured at 600 nm.

[1] = tested on: C57BL/6J mice on high-fat diet; test: Carvacrol-containing high-fat diet fed to mice for 10 weeks: abdominal fat, blood lipids, glucose, insulin, liver lipids; type: in vivo, mouse
Method: High-fat diet (HFD: 40% fat calorie, 17 g lard+3% corn oil/100 g diet) was used to induce obesity. Carvacrol-containing diet had the same composition as the HFD except for containing 0.1% carvacrol. Normal diet (ND) was prepared according to AIN-76 rodent diet (see Table 1).
5-week-old male C57BL/6J mice were accustomed to the laboratory environment for a week while feeding solid feed. They were randomly divided into the ND, HFD and carvacrol groups according to the randomized block design and reared for 10 weeks. Diet was provided between 10 and 11 a.m. every day along with water. Food intake was measured every day, and body weight was measured every 3 days. In order to avoid transient body weight increase due to feed intake, body weight was measured 2 hours after removing the feedbox.
After fasting the test animal for at least 12 hours and anesthetizing with diethyl ether, blood, liver and abdominal fat tissue (epididymal, perirenal, mesenteric and retroperitoneal fat) were taken and weighed after washing with 0.1 M PBS (pH 7.4). The blood taken from the abdominal aorta was centrifuged at 1000×g for 15 minutes to isolate the serum.
Total cholesterol level, triglyceride level, glucose level and insulin level in plasma and lipid components in liver tissue were measured as follows. Total cholesterol level, triglyceride level and glucose level in plasma were measured 2 times using a commercially available kit (Bio Clinical System), and insulin level was measured by ELISA using a mouse Insulin kit (Shibayali, Japan). Lipid components were extracted from liver tissue according to Folch et al.'s method (Folch J, Lees M, Sloane Stanley G H. A simple method for the isolation and purification of total lipids from animal tissues. J. Biol. Chem. 1957; 226: 497-509) as follows. After adding 1 mL of distilled water to 0.25 g of liver tissue, the liver tissue was homogenized using a Polytron homogenizer (IKA-WERKE GmbH & Co., Ultra-Turrax, Staufen, Germany). After adding 5 mL of a chloroform/methanol mixture solution (2:1, v/v) to the homogenate and mixing well, centrifugation was performed at 1000×g for 10 minutes. Then, after separating the pellets and adding 2 mL of the chloroform/methanol mixture solution (2: 1, v/v) again to the supernatant, the same procedure was repeated to completely isolate the lipid components. After adding 3 mL of a chloroform/methanol/0.05% CaCl2 mixture solution (3:48:47, v/v/v) to thus obtained pellets and mixing for 1 minute, centrifugation was performed at 1000×g for 10 minutes. Finally, the resulting pellets were completely dried using nitrogen gas and the dried lipids were dissolved in 1 mL of methanol for analysis of the lipid components. Triglyceride level of the liver tissue was measured as in the plasma analysis using the same commercially available kit (Bio Clinical System).
In Table 2, the characters a, b and c indicate significance according to one-way ANOVA and Duncan's multiple range test (p<0.001). The atherogenic index was calculated by (total cholesterol−HDL cholesterol)/HDL cholesterol, and the insulin resistance index was calculated by 10^−3 pmol insulin×mmol glucose×L^−2.

[2] = tested on: leiomyosarcoma cells isolated from rats cancer-induced with 3,4-benzopyrene; details: carvacrol at 67 μM for 24 hours or at 90 μM for 48 hours; cited from earlier work
[3] = 0.1% carvacrol in high-fat diet
[4] = 0.1% carvacrol in high-fat diet, FIG. 2
[5] = blood (plasma), 0.1% carvacrol in high-fat diet
[6] = liver tissue, 0.1% carvacrol in high-fat diet

Cc1ccc(C(C)C)cc1O [Carvacrol, carvacrol]
fats stained with Oil Red O, OD value at 600 nm (cellular fat content) (preadipocytes 3T3-L1; 0.1-100 μM, FIG. 1B): decreased the cellular fat content in a concentration-dependent manner; also recorded: decrease in OD value in a concentration-dependent manner | concentrations at which differentiation of the preadipocytes 3T3-L1 was decreased (preadipocytes 3T3-L1; concentration-dependent, 0.1, 1, 10, 50 and 100 μM every other day, FIG. 1A): ≥ 10 µM | Liver weight [1, 3]: 4.1 ± 0.1^b g/100 g body wt | decrease in LDL+VLDL cholesterol level in plasma (serum) vs HFD [1, 3]: 46% | decrease in atherogenic index vs HFD [1, 3]: 44% | decrease in cholesterol level in liver tissue vs HFD [1, 3]: 42% | decrease in free fatty acid level in liver tissue vs HFD [1, 3]: 58% | decrease in free fatty acid level in plasma (serum) vs HFD [1, 3]: 80% | decrease in liver weight (liver-to-body weight ratio) vs HFD [1, 3]: 25% | decrease in total cholesterol level in plasma (serum) vs HFD [1, 3]: 29% | decrease in triglyceride level in liver tissue vs HFD [1, 3]: 48% | decrease in triglyceride level in plasma (serum) vs HFD [1, 3]: 30% | fasting blood sugar as compared to the HFD group [1, 3]: significant decrease | insulin level as compared to the HFD group [1, 3]: significant decrease | insulin resistance index as compared to the HFD group [1, 3]: significant decrease | decrease in epididymal fat weight vs HFD [1, 4]: 31% | decrease in mesenteric fat weight vs HFD [1, 4]: 51% | decrease in perirenal fat weight vs HFD [1, 4]: 54% | decrease in retroperitoneal fat weight vs HFD [1, 4]: 23% | decrease in total abdominal fat weight vs HFD [1, 4]: 36% | Insulin resistance index ([1]; 10^−3 pmol insulin×mmol glucose×L^−2, 0.1% carvacrol in high-fat diet): 0.68 ± 0.08^b | Atherogenic index ([1]; (total cholesterol−HDL cholesterol)/HDL cholesterol, 0.1% carvacrol in high-fat diet): 0.57 ± 0.18^b | Insulin ([1]; ELISA, 0.1% carvacrol in high-fat diet): 0.58 ± 0.06^b ng/mL | Free fatty acid [1, 5]: 280 ± 35^c uEq/L | HDL cholesterol [1, 5]: 1.68 ± 0.16^ab mmol/L | LDL + VLDL cholesterol [1, 5]: 1.11 ± 0.05^b mmol/L | Total cholesterol [1, 5]: 2.73 ± 0.30^b mmol/L | Triglyceride [1, 5]: 0.98 ± 0.14^b mmol/L | Glucose ([1]; fasting, blood (plasma), 0.1% carvacrol in high-fat diet): 6.83 ± 0.31^b mmol/L | Cholesterol [1, 6]: 45.4 ± 5.5^b μmol/g | Free fatty acid [1, 6]: 10.3 ± 0.73^b uEq/g | Triglyceride [1, 6]: 22.0 ± 6.0^b μmol/g | production of the final product of platelet aggregation thromboxane B2 [2]: decreased | proliferation of cancer cells [2]: inhibited
